Test [1] deals with RAC-alpha serine/threonine-protein kinase (Homo sapiens, UniProt P31749).
Test [2] concerns the target T1, Calcium/calmodulin-dependent protein kinase type IV (Homo sapiens, UniProt Q16566).
T1 sequence (Q16566 whole entry): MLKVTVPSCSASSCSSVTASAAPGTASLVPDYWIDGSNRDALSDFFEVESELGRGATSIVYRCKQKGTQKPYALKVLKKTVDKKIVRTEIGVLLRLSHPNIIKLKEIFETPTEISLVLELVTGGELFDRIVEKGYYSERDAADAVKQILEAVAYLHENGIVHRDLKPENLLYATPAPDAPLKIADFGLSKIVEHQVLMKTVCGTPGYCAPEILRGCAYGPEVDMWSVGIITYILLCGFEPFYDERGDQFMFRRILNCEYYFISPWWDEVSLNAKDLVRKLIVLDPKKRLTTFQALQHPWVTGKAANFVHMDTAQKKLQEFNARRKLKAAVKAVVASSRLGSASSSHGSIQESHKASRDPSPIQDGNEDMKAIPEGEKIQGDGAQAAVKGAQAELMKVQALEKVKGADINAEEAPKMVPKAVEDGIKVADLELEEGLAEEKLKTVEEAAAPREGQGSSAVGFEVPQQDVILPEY

The target in test [3] is T2, dCTP pyrophosphatase 1 (Homo sapiens, UniProt Q9H773).
T2 sequence (Q9H773 whole entry): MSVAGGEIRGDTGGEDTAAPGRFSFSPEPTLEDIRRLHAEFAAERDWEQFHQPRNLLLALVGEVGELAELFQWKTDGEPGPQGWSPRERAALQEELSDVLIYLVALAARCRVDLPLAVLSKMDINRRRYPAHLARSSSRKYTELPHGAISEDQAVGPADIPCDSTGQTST

The target of test [4] is T3, Ribosyldihydronicotinamide dehydrogenase [quinone] (Homo sapiens, UniProt P16083).
T3 sequence (P16083 whole entry): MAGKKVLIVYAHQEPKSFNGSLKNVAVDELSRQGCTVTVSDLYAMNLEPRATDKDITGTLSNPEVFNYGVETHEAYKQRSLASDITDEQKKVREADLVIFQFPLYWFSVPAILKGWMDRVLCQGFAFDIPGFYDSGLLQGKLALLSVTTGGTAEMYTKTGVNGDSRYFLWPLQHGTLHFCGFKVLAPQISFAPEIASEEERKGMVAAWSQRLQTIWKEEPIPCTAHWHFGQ

For test [5], the target named is T4, Serine/threonine-protein kinase D3 (Homo sapiens, UniProt O94806).
T4 sequence (O94806 whole entry): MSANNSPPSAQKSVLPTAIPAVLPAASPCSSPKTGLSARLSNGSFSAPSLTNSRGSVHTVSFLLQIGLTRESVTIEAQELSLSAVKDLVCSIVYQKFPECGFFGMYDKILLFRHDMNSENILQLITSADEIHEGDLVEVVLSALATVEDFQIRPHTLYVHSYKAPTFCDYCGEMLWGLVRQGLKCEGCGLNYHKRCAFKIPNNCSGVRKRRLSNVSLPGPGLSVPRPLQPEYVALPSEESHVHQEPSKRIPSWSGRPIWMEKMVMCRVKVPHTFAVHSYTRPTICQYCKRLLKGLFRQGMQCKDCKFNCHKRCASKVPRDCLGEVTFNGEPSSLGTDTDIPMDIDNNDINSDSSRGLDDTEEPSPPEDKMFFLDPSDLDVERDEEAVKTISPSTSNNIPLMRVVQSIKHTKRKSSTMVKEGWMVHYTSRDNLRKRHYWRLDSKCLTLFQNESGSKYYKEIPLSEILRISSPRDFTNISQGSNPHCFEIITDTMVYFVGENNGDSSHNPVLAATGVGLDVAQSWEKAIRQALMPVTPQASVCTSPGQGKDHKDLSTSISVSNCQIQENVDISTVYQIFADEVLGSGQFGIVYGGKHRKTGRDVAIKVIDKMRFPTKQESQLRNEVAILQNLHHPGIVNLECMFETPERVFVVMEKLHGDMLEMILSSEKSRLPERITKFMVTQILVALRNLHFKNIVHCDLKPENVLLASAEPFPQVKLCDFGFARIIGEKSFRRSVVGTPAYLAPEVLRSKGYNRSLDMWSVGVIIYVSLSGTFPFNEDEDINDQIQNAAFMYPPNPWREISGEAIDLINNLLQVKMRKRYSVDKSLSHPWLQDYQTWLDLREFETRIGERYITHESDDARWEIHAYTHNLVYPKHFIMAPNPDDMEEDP

Test [6] deals with Ribosomal protein S6 kinase alpha-6 (Homo sapiens, UniProt Q9UK32).
Test [7] has as its target T5, ADP/ATP translocase 3 (Homo sapiens, UniProt P12236).
T5 sequence (P12236 whole entry): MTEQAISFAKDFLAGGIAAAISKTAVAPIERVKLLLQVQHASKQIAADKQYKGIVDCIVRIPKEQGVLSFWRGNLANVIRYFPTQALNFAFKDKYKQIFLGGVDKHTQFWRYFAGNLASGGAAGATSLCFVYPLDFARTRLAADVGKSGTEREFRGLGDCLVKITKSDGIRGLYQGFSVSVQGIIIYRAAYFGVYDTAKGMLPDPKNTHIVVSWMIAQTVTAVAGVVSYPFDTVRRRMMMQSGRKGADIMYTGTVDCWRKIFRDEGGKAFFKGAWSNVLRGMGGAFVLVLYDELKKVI

In test [8] the target is T6, Phosphatidylinositol 5-phosphate 4-kinase type-2 alpha (Homo sapiens, UniProt P48426).
T6 sequence (P48426 whole entry): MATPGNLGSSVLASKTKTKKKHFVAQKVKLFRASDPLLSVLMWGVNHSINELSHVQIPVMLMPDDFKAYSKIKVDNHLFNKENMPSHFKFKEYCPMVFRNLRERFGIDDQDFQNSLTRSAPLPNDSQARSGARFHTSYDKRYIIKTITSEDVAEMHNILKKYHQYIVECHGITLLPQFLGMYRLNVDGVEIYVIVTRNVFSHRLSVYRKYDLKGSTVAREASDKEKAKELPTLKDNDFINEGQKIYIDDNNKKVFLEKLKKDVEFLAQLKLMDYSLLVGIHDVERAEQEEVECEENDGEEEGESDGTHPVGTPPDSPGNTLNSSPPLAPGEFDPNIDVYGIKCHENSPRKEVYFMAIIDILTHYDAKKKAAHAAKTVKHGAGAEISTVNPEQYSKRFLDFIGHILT

Active and inactive are the calls of the source.
Further: in the data inactive means no Kd found up to 30 µM.

Ribosomal protein S6 kinase alpha-6, sequence (Q9UK32 whole entry): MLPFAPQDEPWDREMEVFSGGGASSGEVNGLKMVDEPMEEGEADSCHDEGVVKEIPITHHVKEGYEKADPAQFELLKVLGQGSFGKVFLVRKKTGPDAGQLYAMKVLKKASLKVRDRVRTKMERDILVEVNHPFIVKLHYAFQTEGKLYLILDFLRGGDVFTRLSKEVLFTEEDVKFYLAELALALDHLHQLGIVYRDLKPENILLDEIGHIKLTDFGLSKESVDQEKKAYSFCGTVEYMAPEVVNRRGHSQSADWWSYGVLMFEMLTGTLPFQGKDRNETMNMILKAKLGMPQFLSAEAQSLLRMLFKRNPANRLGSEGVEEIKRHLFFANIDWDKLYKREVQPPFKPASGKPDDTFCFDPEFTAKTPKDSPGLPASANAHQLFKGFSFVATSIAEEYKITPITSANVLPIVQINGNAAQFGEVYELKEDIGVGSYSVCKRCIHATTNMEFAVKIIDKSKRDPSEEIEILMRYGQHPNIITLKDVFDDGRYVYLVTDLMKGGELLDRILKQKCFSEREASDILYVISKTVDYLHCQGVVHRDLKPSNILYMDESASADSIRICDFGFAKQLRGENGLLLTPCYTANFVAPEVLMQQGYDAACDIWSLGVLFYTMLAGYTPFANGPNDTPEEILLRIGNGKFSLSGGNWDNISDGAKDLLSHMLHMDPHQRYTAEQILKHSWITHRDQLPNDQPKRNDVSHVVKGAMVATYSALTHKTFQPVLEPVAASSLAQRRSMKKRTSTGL
RAC-alpha serine/threonine-protein kinase, sequence (P31749 whole entry): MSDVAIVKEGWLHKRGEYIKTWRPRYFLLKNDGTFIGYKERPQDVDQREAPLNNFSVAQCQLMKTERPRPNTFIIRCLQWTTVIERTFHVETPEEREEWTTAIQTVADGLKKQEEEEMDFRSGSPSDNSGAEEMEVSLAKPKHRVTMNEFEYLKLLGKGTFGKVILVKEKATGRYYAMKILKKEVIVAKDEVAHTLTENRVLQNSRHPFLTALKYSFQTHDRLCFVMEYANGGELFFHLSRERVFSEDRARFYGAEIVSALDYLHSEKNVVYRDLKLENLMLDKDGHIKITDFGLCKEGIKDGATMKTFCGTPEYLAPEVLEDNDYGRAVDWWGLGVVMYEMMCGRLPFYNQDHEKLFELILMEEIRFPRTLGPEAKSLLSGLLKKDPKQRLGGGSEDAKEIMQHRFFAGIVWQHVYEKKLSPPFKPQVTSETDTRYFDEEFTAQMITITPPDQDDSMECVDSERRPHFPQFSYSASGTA

On to `C[C@@H](Oc1cc(C(=O)Nc2ccc(C(=O)N3CCN(C)CC3)cc2)nnc1N)c1c(Cl)ccc(F)c1Cl`, for which the Kd in test [1], in test [2], in test [3], in test [4], in test [5] and in test [6] was > 30 µM (inactive) in each case. Also, in test [7], the Kd (commonly the equilibrium constant for the complex coming apart) was > 30 µM (inactive).

Regarding `CC(=O)c1cnc2ccc(-c3cc(Cl)c(O)c(Cl)c3)nc2c1N[C@H]1CC[C@H](CN(C)C)CC1`, the Kd in test [1] was > 30 µM (inactive); in test [2] it was > 30 µM (inactive); in test [3] it was > 30 µM (inactive); in test [4] it was > 30 µM (inactive); in test [8], > 30 µM (inactive); in test [5], 0.093 µM (active). In addition, the Kd in test [6] was 0.057 µM (active); in test [7] it was > 30 µM (inactive).

For `CCNC(=O)C#Cc1ccc2c(c1)NC(=O)/C2=C(\Nc1ccc(CN(C)C)cc1)c1ccccc1`, the Kd in test [1], in test [2], in test [3], in test [4], in test [8] and in test [5] was > 30 µM (inactive) in each case. Moreover, the Kd in test [6] and in test [7] was > 30 µM (inactive) in each case.

On to `C=CC(=O)N1CCC[C@H](n2c(=O)n(-c3ccc(Oc4ccccc4)cc3)c3c(N)ncnc32)C1`, for which the Kd in test [1], in test [2], in test [3], in test [4], in test [8] and in test [5] was > 30 µM (inactive) each time. Also, the Kd in test [6] and in test [7] was > 30 µM (inactive) in each case.

For the molecule `Cc1nc2cc(-c3nn(C(C)C)c4ncnc(N)c34)ccc2o1`, the Kd is > 30 µM (inactive) in test [1]; 5.96 µM (active) in test [2]; > 30 µM (inactive) in test [3]; > 30 µM (inactive) in test [4]; > 30 µM (inactive) in test [8]; > 30 µM (inactive) in test [5]. The Kd in test [6] and in test [7] was > 30 µM (inactive) in each case.

For the molecule `COCc1c(-c2ccc(NC(=O)Nc3cc(C(F)(F)F)ccc3F)c(F)c2)c2c(N)ncnn2c1CN1CCOCC1`, the Kd in test [1], in test [2], in test [3], in test [4], in test [8] and in test [5] was > 30 µM (inactive) in each case. Moreover, the Kd in test [6] was 2.69 µM (active); in test [7], > 30 µM (inactive).

With `Nc1ncnc2c1c(-c1cccc(OCc3ccccc3)c1)cn2[C@H]1C[C@@H](CN2CCC2)C1` [AEW-541], the Kd in test [1], in test [2], in test [3], in test [4], in test [5] and in test [6] was > 30 µM (inactive) in each case. For the same molecule, in test [7], the Kd is > 30 µM (inactive).

On to `Cc1csc(-c2nnc(Nc3ccc(Oc4ncccc4-c4ccnc(N)n4)cc3)c3ccccc23)c1` [AMG-900], for which the Kd in test [1] is > 30 µM (inactive); in test [2], 1.82 µM (active); in test [3], > 30 µM (inactive); in test [4] it was 3.35 µM (active); in test [8], > 30 µM (inactive); in test [5] it was 1.91 µM (active). In addition, the Kd in test [6] and in test [7] was > 30 µM (inactive) throughout.

As for `C=CC(=O)Nc1cc2c(Nc3ccc(F)c(Cl)c3)ncnc2cc1C#CC(C)(C)N1CCN(C)CC1` [AV-412 FREE BASE], the Kd in test [1], in test [3], in test [4], in test [8], in test [5] and in test [6] was > 30 µM (inactive) each time. For the same molecule, the Kd in test [7] is > 30 µM (inactive).

With `FC(F)(F)c1ccc(/C=C/c2nc(COc3ccc(CCCCn4ccnn4)cc3)co2)cc1` [MUBRITINIB], the Kd in test [1], in test [2], in test [3], in test [4], in test [5] and in test [6] was > 30 µM (inactive) each time. Moreover, in test [7], the Kd was > 30 µM (inactive).

As for `CCCCCCCCCCCCCCCCCCOP(=O)([O-])OC1CC[N+](C)(C)CC1` [PERIFOSINE], the Kd in test [1], in test [2], in test [3], in test [4], in test [5] and in test [6] was > 30 µM (inactive) in each case. In test [7], the Kd was > 30 µM (inactive).

`Cc1cnc(NC(=O)Nc2cc(Br)c(C)cc2OC[C@@H]2CNCCO2)cn1` [RABUSERTIB]: the Kd in test [1], in test [2], in test [3], in test [4], in test [5] and in test [6] was > 30 µM (inactive) each time. In test [7], the Kd was > 30 µM (inactive).

Regarding `O=C1NC(=O)[C@@H](c2cn3c4c(cccc24)CCC3)[C@@H]1c1c[nH]c2ccccc12` [TIVANTINIB], the Kd in test [1], in test [2], in test [3], in test [4], in test [5] and in test [6] was > 30 µM (inactive) each time. The Kd in test [7] is > 30 µM (inactive).

Regarding `CC(C)c1cc(CNc2nc(Nc3cc(C4CC4)[nH]n3)cc(N3CCN(C)CC3)n2)on1` [XL-228], the Kd in test [1] was > 30 µM (inactive); in test [2] it was > 30 µM (inactive); in test [3] it was > 30 µM (inactive); in test [4], > 30 µM (inactive); in test [5], 1.86 µM (active); in test [6] it was > 30 µM (inactive). Moreover, the Kd in test [7] is > 30 µM (inactive).

The values are drawn from ChEMBL document CHEMBL3991601, “The target landscape of clinical kinase drugs” (Science, 2017).
